Assay results: patent EP1068184B1, “N-ARYLOXYETHYLAMINE DERIVATIVES FOR THE TREATMENT OF DEPRESSION” (Wyeth, priority 1998, dated 1999)
Where two headings read alike, the source gives them in different places.

Experiments:
[1] = biological target: T1, human 5-HT1A receptor subtype (Homo sapiens, UniProt P08908); assay: 5-HT1A receptor binding assay with [3H]8-OH-DPAT on membranes of 5-HT1A.CHO cells; conditions: for Ki: [3H]8-OH-DPAT 1.5 nM, CHO cell membranes; for 5-HT1A (% @1000nM) / 5-HT1A (% @10nM): given instead of a Ki
T1 construct: expressed in transfected cells
T1 sequence (P08908 1-422): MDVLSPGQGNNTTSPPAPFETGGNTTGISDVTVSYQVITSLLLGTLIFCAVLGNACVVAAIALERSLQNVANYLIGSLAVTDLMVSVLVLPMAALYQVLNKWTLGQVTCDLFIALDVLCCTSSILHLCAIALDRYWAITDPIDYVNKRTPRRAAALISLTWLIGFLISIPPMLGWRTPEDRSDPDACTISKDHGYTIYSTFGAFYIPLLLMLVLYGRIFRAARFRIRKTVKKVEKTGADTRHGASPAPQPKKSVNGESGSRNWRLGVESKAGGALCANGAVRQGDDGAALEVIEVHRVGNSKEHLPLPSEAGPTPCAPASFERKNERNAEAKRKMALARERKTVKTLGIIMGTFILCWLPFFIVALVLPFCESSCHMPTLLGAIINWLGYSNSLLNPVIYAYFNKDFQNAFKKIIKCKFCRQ
Description: (§1) The PCR cloning of the human 5-HT1A receptor subtype from a human genomic library has been described previously Chanda et al., Mol. Pharmacol., 43:516 (1993). A stable Chinese hamster ovary cell line expressing the human 5-HT1A receptor subtype (5-HT1A.CHO cells) was employed throughout this study. Cells were maintained in DMEM supplemented with 10% foetal calf serum, non-essential amino acids and penicillin/ streptomycin.
Cells were grown to 95-100% confluency as a monolayer before membranes were harvested for binding studies. Cells were gently scraped from the culture plates, transferred to centrifuge tubes, and washed twice by centrifugation (2000 rpm for 10 min., 4°C) in buffer (50 mM Tris; pH 7.5). The resulting pellets were aliquoted and placed at -80°C. On the day of assay, the cells were thawed on ice, and resuspended in buffer. Studies were conducted using [^3H]8-OH-DPAT as the radioligand. The binding assay was performed in 96 well microtiter plates in a final total volume of 250 µL of buffer. Competition experiments were performed by using 7 concentrations of unlabelled drug and a final ligand concentration of 1.5 nM . Non-specific binding was determined in the presence of 10 µM 5HT. Saturation analysis was conducted by using [^3H]8-OH-DPAT at concentrations ranging from 0.3-30 nM. Following a 30 minute incubation at room temperature, the reaction was terminated by the addition of ice cold buffer and rapid filtration using a M-96 Brandel Cell Harvester (Gaithersburg, MD) through a GF/B filter presoaked for 30 minutes in 0.5% polyethyleneimine.

serotonin transporter = biological target: T2, serotonin transporter (Rattus norvegicus, UniProt P31652); assay: serotonin transporter affinity, 3H-paroxetine binding to frontal cortical membranes; design: species or system male Sprague-Dawley rats
T2 construct: frontal cortical membranes prepared from male Sprague-Dawley rats; from tissue; host or cells: rat frontal cortex membranes
Description: Briefly, frontal cortical membranes prepared from male Sprague-Dawley rats were incubated with ^3H-paroxetine (0.1 nM) for 60 min at 25°C. All tubes also contained either vehicle, test compound (one to eight concentrations), or a saturating concentration of fluoxetine (10 µM) to define specific binding. All reactions are terminated by the addition of ice cold Tris buffer followed by rapid filtration using a Tom Tech filtration device to separate bound from free ^3H-paroxetine.

[2] = biological target: T1, human 5-HT1A receptor subtype; assay: cAMP formation in forskolin-treated cells (cAMP SPA assay); format: cell-based; conditions: forskolin 1 uM, 10 min at 37°C
Description: as §1
The following assays were performed by incubating the cells with DMEM containing 25 mM HEPES, 5 mM theophylline and 10 µM pargyline for a period of 20 minutes at 37°C. Functional activity was assessed by treating the cells with forskolin (1 uM final concentration) followed immediately by test compound (6 concentrations) for an additional 10 min at 37°C. In separate experiments, 6 concentrations of antagonist were preincubated for 20 min prior to the addition of 10 nM 8-OH-DPAT and forskolin. The reaction was terminated by removal of the media and addition of 0.5 ml ice cold assay buffer. Plates were stored at -20°C prior to assessment of cAMP formation by a cAMP SPA assay (Amersham).

5-HT1A cloned receptor = biological target: T3, 5-HT1A cloned receptor (Homo sapiens, UniProt P08908); assay: [35S]-GTPγS binding assay on 5-HT1A cloned receptor membrane fragments; format: biochemical; conditions: maximum agonist response defined by excess 8-OH-DPAT
T3 construct: expressed in transfected cells
T3 sequence (P08908 1-422): T1 sequence (P08908 1-422)
Description: The [^35S]-GTPγS binding assay was similar to that used by Lazareno and Birdsall, Br. J. Pharmacol. 109:1120 (1993). Briefly, 5-HT1A cloned receptor membrane fragments (as used for 5-HT1A receptor binding assays) were stored at -70 °C until needed. When needed, membranes were rapidly thawed, centrifuged at 40,000 x g for 10 minutes and resuspended at 4 °C for 10 minutes in assay buffer (25 mM HEPES, 3 mM MgCl2, 100 mM NaCI, 1 mM EDTA, 10 uM GDP, […] DTT, pH 8.0). These membranes were then incubated for 30 min at 30 °C with [^35S]GTPgS (1 nM) in the presence of vehicle, test compound (one to eight concentrations), or excess 8-OH-DPAT to define maximum agonist response. All reactions are terminated by the addition of ice cold Tris buffer followed by rapid filtration using a Tom Tech® filtration device to separate bound from free [^35S]GTPgS. Agonists produce an increase in the amount of [^35S]GTPgS bound whereas antagonists produce no increase in binding. Bound radioactivity was counted and analyzed as above.

[3] = 3H-paroxetine 0.1 nM, rat frontal cortical membranes, read-out: ST (Ki)

T2 sequence (P31652 whole entry): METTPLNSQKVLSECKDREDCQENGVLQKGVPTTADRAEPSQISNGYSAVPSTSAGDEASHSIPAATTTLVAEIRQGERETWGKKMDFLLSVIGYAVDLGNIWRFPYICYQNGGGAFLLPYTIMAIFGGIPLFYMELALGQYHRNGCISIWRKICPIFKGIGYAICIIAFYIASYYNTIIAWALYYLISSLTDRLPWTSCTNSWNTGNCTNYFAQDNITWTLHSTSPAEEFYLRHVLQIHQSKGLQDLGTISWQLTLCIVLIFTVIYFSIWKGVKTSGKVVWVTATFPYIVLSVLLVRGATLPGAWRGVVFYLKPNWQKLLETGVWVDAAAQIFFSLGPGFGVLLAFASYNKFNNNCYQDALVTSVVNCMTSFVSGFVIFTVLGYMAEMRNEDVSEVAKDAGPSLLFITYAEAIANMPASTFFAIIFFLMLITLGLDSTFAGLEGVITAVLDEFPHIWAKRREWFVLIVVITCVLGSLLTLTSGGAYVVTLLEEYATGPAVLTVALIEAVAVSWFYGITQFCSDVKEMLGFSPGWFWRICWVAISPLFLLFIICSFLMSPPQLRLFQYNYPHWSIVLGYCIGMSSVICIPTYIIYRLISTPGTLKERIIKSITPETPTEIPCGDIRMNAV

Row | Structure (SMILES) | Ki [1] | Ki (serotonin transporter; [3]) | Emax (5-HT1A cloned receptor) | further results
1 | COc1ccccc1OCCN[C@H]1CC[C@@H](c2c[nH]c3ccc(F)cc32)CC1 [Example 1a, [(cis)-4-(5-Fluoro-1H-indol-3-yl)-cyclohexyl]-[2-(2-methoxy-phenoxy)-ethyl]-amine] | 307 nM |  |  | 
2 | COc1ccccc1OCCN[C@H]1CC[C@H](c2c[nH]c3ccc(F)cc32)CC1 [Example 1b, [(trans)-4-(5-Fluoro-1H-indol-3-yl)-cyclohexyl]-[2-(2-methoxy-phenoxy)-ethyl]-amine] | 22.4 nM |  |  | 
3 | COc1ccc(F)cc1OCCN[C@H]1CC[C@@H](c2c[nH]c3cc(F)ccc32)CC1 [Example 2a, [(1,4-cis)-4-(6-Fluoro-1H-indol-3-yl)-cyclohexyl]-[2-(5-fluoro-2-methoxy-phenoxy)-ethyl]-amine] | 996 nM | 1.19 nM |  | 
4 | Fc1ccc2[nH]cc([C@H]3CC[C@@H](NCCOc4cccc5[nH]ccc45)CC3)c2c1 [Example 3a] | 147 nM | 26 nM |  | 
5 | Fc1ccc2[nH]cc([C@H]3CC[C@@H](NCCOc4cccc5c4OCCO5)CC3)c2c1 [Example 4a] | 484 nM | 18 nM |  | 
6 | Fc1ccc2[nH]cc([C@H]3CC[C@H](NCCOc4cccc5c4OCCO5)CC3)c2c1 [Example 4b] | 18.9 nM | 1.12 nM |  | Emax [2]: 61%
7 | Fc1ccc2c(c1)[nH]cc2[C@H]1CC[C@@H](NCCOc2cccc3c2OCCO3)CC1 [Example 4c] | 353 nM | 6.37 nM |  | 
8 | Fc1ccc2c(c1)[nH]cc2[C@H]1CC[C@H](NCCOc2cccc3c2OCCO3)CC1 [Example 4d] | 16.7 nM | 0.21 nM | 74.8% | 
9 | Fc1cc2c(c(OCCN[C@H]3CC[C@@H](c4c[nH]c5ccc(F)cc54)CC3)c1)OCCC2 [Example 5a, [2-(6-Fluoro-chroman-8-yloxy)-ethyl]-[(1,4-cis)-4-(5-fluoro-1H -indol-3-yl)-cyclohexyl]-amine] |  | 13 nM |  | 5-HT1A (% @1000nM) [1]: 49%@1000nM
10 | Cn1cc([C@H]2CC[C@@H](NCCOc3cc(F)cc4c3OCCC4)CC2)c2cc(C#N)ccc21 [Example 5c, 3-{(1,4-cis)-4-[2-(6-Fluoro-chroman-8-yloxy)-ethylamino]-cyclohexyl}-1-methyl-1H-indole-5-carbonitrile] |  | 0.53 nM |  | 5-HT1A (% @1000nM) [1]: 47%@1000nM
11 | Cn1cc([C@H]2CC[C@H](NCCOc3cc(F)cc4c3OCCC4)CC2)c2cc(C#N)ccc21 [Example 5d, 3-{(1,4-cis)-4-[2-(6-Fluoro-chroman-8-yloxy)-ethylamino]-cyclohexyl}-1-methyl-1H-indole-5-carbonitrile] | 24 nM | 21.4 nM |  | 
12 | N#Cc1ccc2[nH]cc([C@H]3CC[C@@H](NCCOc4cc(F)cc5c4OCCC5)CC3)c2c1 [Example 5e, 3-{(1,4-cis)-4-[2-(6-Fluoro-chroman-8-yloxy)-ethylamino]-cyclohexyl}-1H-indole-5-carbonitrile] | 385 nM | 2.74 nM |  | 
13 | N#Cc1ccc2[nH]cc([C@H]3CC[C@@H](NCCOc4cc(F)cc5c4OCC5)CC3)c2c1 [Example 6a] |  | 1.07 nM |  | 5-HT1A (% @1000nM) [1]: 49%@1000nM
14 | N#Cc1ccc2[nH]cc([C@H]3CC[C@H](NCCOc4cc(F)cc5c4OCC5)CC3)c2c1 [Example 6b] | 23.5 nM | 1.53 nM |  | 
15 | Fc1cc(OCCN[C@H]2CC[C@@H](c3c[nH]c4ccc(F)cc43)CC2)c2occc2c1 [Example 7a, [2-(5-Fluoro-benzofuran-7-yloxy)-ethyl]-[(1,4-cis)-4-(5-fluoro-1H -indol-3-yl)-cyclohexyl]-amine] | 146 nM |  |  | 
16 | Fc1cc(OCCN[C@H]2CC[C@H](c3c[nH]c4ccc(F)cc43)CC2)c2occc2c1 [Example 7b, [2-(5-Fluoro-benzofuran-7-yloxy)-ethyl]-[(1,4-trans)-4-(5-fluoro-1H -indol-3-yl)-cyclohexyl]-amine] | 18.8 nM |  |  | 
17 | Fc1ccc2[nH]cc([C@H]3CC[C@H](NCCOc4cc(Cl)cc5[nH]cnc45)CC3)c2c1 [Example 8a, [2-(6-Chloro-1H-benzoimidazol-4-yloxy)-ethyl]-[(1,4-trans)-4-(5-fluoro-1H-indol-3-yl)-cyclohexyl]-amine] | 12.7 nM | 1.6 nM | 0% | 
18 | COc1cc(F)ccc1OCCN[C@H]1CC[C@@H](c2c[nH]c3ccc(F)cc32)CC1 [Example 9a, [(1,4-cis)-4-(5-Fluoro-1H-indol-3-yl)-cyclohexyl]-[2-(4-fluoro-2-methoxy-phenoxy)-ethyl]-amine] |  | 1.76 nM | 45% | 5-HT1A (% @10nM) [1]: 16%@10nM
19 | COc1cc(F)ccc1OCCN[C@H]1CC[C@H](c2c[nH]c3ccc(F)cc32)CC1 [Example 9b, [(1,4-trans)-4-(5-Fluoro-1H-indol-3-yl)-cyclohexyl]-[2-(4-fluoro-2-methoxy-phenoxy)-ethyl]-amine] | 78.3 nM | 3.28 nM | 39.5% | 
20 | COc1ccccc1OCCNCC1CCC(c2c[nH]c3ccc(C#N)cc23)CC1 (stereo not drawn) [Example 10b, 3-(4-{[2-(Methoxy-phenoxy)-ethylamino]-methyl}-cyclohexyl)-1H-indole-5-carbonitrile] |  | 1.53 nM |  | 5-HT1A (% @10nM) [1]: 7%@10nM
21 | COc1cc(F)c(F)cc1OCCN[C@H]1CC[C@@H](c2c[nH]c3ccc(F)cc32)CC1 [Example 11a, (1,4-cis)-[2-(4,5-Difluoro-2-methoxy-phenoxy)-ethyl]-[4-(5-fluoro-1H-indol-3-yl)-cyclohexyl]-amine] |  |  | 0% | Ki (serotonin transporter): 1.7 nM; 5-HT1A (% @10nM) [1]: 0%@10nM
22 | COc1cc(F)c(F)cc1OCCN[C@H]1CC[C@H](c2c[nH]c3ccc(F)cc32)CC1 [Example 11b, (1,4-trans)-[2-(4,5-Difluoro-2-methoxy-phenoxy)-ethyl]-[4-(5-fluoro-1H-indol-3-yl)-cyclohexyl]-amine] | 24.9 nM |  | 0% | Ki (serotonin transporter): 0.7 nM
23 | COc1cc(S(C)(=O)=O)c(F)cc1OCCN[C@H]1CC[C@H](c2c[nH]c3ccc(F)cc32)CC1 [Example 12, [(1,4-trans)-4-(5-Fluoro-1H-indol-3-yl)-cyclohexyl]-[2-(5-fluoro-4-methanesulfonyl-2-methoxy-phenoxy)-ethyl]-amine] |  |  | 0% | Ki (serotonin transporter): 0.47 nM; 5-HT1A (% @10nM) [1]: 0%@10nM
24 | OC1(CNCCOc2cccc3[nH]ccc23)CCC(c2c[nH]c3ccc(F)cc23)CC1 (stereo not drawn) [Example 13, (1,4)-4-(5-Fluoro-1H-indol-3-yl)-1-([2-(1H-indol-4-yloxy)-ethylamino]-methyl}-cyclohexanol] |  |  | 85% | 
